Results from patent US11518764B2, “Substituted heteroaryls as inhibitors of the BCL6 BTB domain protein-protein interaction” (Ontario Institute for Cancer Research (OICR), priority 2018, dated 2022).

Assays:
[1] = system: Karpas422 cells; experiment: Tumor cell growth inhibition assay; format: cell-based; details: Homo sapiens, KARPAS-422, 144 h, read-out: Tumor Growth Inhibition in Karpas-422 (IC50, uM), Karpas422 cells, six days, ATPlite
Method in brief: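 Karpas422 cells (2,000/well) in Alpha-MEM with 10% FBS dosed across 10 concentrations (top 5 uM) and grown six days at 37° C., 5% CO2. Viability read as ATPlite luminescence.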

[2] = target: BCL6 BTB domain (Homo sapiens (Human), UniProt P41182); experiment: Surface plasmon resonance (SPR) assay; format: binding; details: BCL6 BTB domain captured on SA chip, single cycle kinetics
[3] = system: BCL6 reporter construct (3xBCL6-TK-Luc) in SuDHL4 cells; experiment: Cell-based luciferase assay; details: Homo sapiens, SU-DHL-4, 48 h, read-out: Luciferase-Assay EC50, uM), SuDHL4-3xBCL6-TK-Luc cells, two days, high dose 10 uM
Method in brief: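 SuDHL4 cells stably carrying a 3×BCL6-site TK-promoter firefly luciferase reporter, seeded at 15,000 cells/well, were dosed over a 10-point range (top 10 uM) and grown two days at 37 °C, 5% CO2. Luminescence then read after adding neolite reagent at room temperature.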

Row | SMILES | IC50 [1] [µM] | Kd [2] [nM] | EC50 [3] [µM]
1 | C[C@H]1COCCN1c1cc(NC(=O)Cn2cc(-c3cc(Cl)c(O)c(C(N)=O)c3)c3c(=O)n(C)c(N4CCC4)nc32)c(Cl)cn1 [Compound I-270, (S)-5-(2-(azetidin-1-yl)-7-(2-((5-chloro-2-(3-methylmorpholino)pyridin-4-yl)amino)-2-oxoethyl)-3-methyl-4-oxo-4,7-dihydro-3H-pyrrolo[2,3-d]pyrimidin-5-yl)-3-chloro-2-hydroxybenzamide] | 3.82 | 63 | 2.31
2 | Cn1cnc2c(c(-c3cc(C(N)=O)c(O)c(F)c3F)cn2CC(=O)Nc2cc(N3C4CCC3CN(CC(F)(F)F)C4)ncc2Cl)c1=O [Compound I-465] | 1.17 | 84.9 | 4.47
3 | Cc1nc2c(c(-c3cc(C(N)=O)c(O)c(F)c3F)cn2CC(=O)Nc2cc(N3CCN(C)CC3)ncc2Cl)c(=O)n1C [Compound I-305] | 1.32 | 70.5 | 0.647
4 | C[C@H]1CN(CC2CC2)CCN1c1cc(NC(=O)Cn2cc(-c3cc(Cl)c(O)c(C(N)=O)c3)c3c(=O)n(C)cnc32)c(Cl)c(F)n1 [Compound I-444] | 0.104 | 19.8 | 0.239
5 | C[C@H]1COCCN1c1cc(NC(=O)Cn2cc(-c3cc(F)c(O)c(C(N)=O)c3)c3c(=O)n(CC#Cc4cnn(C)c4)cnc32)c(Cl)cn1 [Compound I-457] | 0.183 | 13.1 | 0.328
6 | CC[C@@H]1CN(c2cc(NC(=O)Cn3cc(-c4cc(Cl)c(O)c(C(N)=O)c4)c4c(=O)n(C)cnc43)c(Cl)cn2)CCO1 [Compound I-202] | 0.156 | 23.9 | 0.211
7 | COc1c(O)c(C(N)=O)cc(-c2cn(CC(=O)Nc3cc(N4CCOCC4)ncc3Cl)c3ncn(C)c(=O)c23)c1F [Compound I-171] | 1.04 | 99.7 | 1.2
8 | Cn1ccc2c(c(-c3cc(Cl)c(O)c(C(N)=O)c3)cn2CC(=O)Nc2cc(N3CCOCC3)ncc2Cl)c1=O [Compound I-141] | 1.02 | 265 | 1.83
9 | COCCN1CCN(c2cc(NC(=O)Cn3cc(-c4cc(F)c(O)c(C(N)=O)c4)c4c(=O)n(C)cnc43)c(Cl)cn2)[C@@H](C)C1 [Compound I-416] | 0.0592 | 2.73 | 0.0787
10 | CN1CCN(c2cc(NC(=O)Cn3cc(-c4cc(Cl)c(O)c(C(N)=O)c4)c4c(=O)n(C)cnc43)c(Cl)cn2)C(C)(C)C1 [Compound I-352] | 0.346 | 59.7 | 0.79
11 | CN1CC2(CCN(c3cc(NC(=O)Cn4cc(-c5cc(Cl)c(O)c(C(N)=O)c5)c5c(=O)n(C)cnc54)c(Cl)cn3)C2)C1 [Compound I-482] | 2.32 | 34.3 | 4.69
12 | CN1CC2CN(c3cc(NC(=O)Cn4cc(-c5cc(Cl)c(O)c(C(N)=O)c5)c5c(=O)n(C)cnc54)c(Cl)cn3)CCN2C1=O (stereo not drawn) [Compound I-238] | 0.291 | 12.1 | 0.588
13 | C[C@H]1CN(CC2CC2)CCN1c1cc(NC(=O)Cn2cc(-c3cc(C(N)=O)c(O)c(F)c3F)c3c(=O)n(C)cnc32)c(Cl)c(F)n1 [Compound I-443] | 0.149 | 18.6 | 0.285
14 | Cn1cnc2c(c(-c3cc(F)c(O)c(C(N)=O)c3)cn2CC(=O)Nc2cc(N3CC4CC3CO4)ncc2Cl)c1=O (stereo not drawn) [Compound I-284] | 0.75 | 23.4 | 0.628
15 | COc1c(O)c(C(N)=O)cc(-c2cn(CC(=O)Nc3cc(N4C[C@@H](C)O[C@@H](C)C4)ncc3Cl)c3ncn(C)c(=O)c23)c1F [Compound I-172] | 1.34 | 167 | 0.797
16 | Cn1cc2cc(NC(=O)Cn3cc(-c4cc(Cl)c(O)c(C(N)=O)c4)c4c(=O)n(C)cnc43)c(Cl)cc2n1 [Compound I-182] | 1.03 | 86.3 | 1.41

Row | SMILES | IC50 [1] [µM] | Kd [2] [nM] | EC50 [3] [µM]
17 | C[C@H]1CN(C)CCN1c1cc(NC(=O)Cn2cc(-c3cc(F)c(O)c(C(N)=O)c3)c3c(=O)n(CC#Cc4cnn(C)c4)cnc32)c(Cl)cn1 [Compound I-480] | 0.704 | 137 | 2.21
18 | COc1cc(-c2cn(CC(=O)Nc3cc(N4CCOCC4)ncc3Cl)c3nc(C)n(C)c(=O)c23)cc(C(N)=O)c1O [Compound I-123] | 0.216 | 7 | 0.095
19 | Cn1cnc2c(c(-c3cc(Cl)c(O)c(C(N)=O)c3)cn2CC(=O)Nc2cc(N3CCCC4(CCOCC4)C3)ncc2Cl)c1=O [Compound I-156] | 0.576 | 49.6 | 0.941
20 | Cc1nc2c(c(-c3cc(F)c(O)c(C(N)=O)c3)cn2CC(=O)Nc2cc(N3CC(C)(C)NC(C)(C)C3)ncc2Cl)c(=O)n1C [Compound I-243] | 0.134 | 12.4 | 0.19
21 | Cc1cc(-c2cn(CC(=O)Nc3cc(N4CCOCC4)ncc3Cl)c3ncn(C)c(=O)c23)cc(C(N)=O)c1O [Compound I-4, 5-(7-(2-((5-chloro-2-morpholinopyridin-4-yl)amino)-2-oxoethyl)-3-methyl-4-oxo-4,7-dihydro-3H-pyrrolo[2,3-d]pyrimidin-5-yl)-2-hydroxy-3-methylbenzamide] | 0.525 | 279 | 1.8
22 | Cc1nc2c(c(-c3cc(Cl)c(O)c(C(N)=O)c3)cn2CC(=O)Nc2cc(N3CCN(C)C[C@@H]3C)ncc2Cl)c(=O)n1C [Compound I-206] | 0.128 | 9.34 | 0.122
23 | CN1CCN(c2cc(NC(=O)Cn3cc(-c4cc(C(N)=O)c(O)c(Cl)c4F)c4c(=O)n(C)cnc43)c(Cl)cn2)CC1 [Compound I-188] | 2.95 | 435 | 4.75
24 | CN1CCN(c2cc(NC(=O)Cn3cc(-c4cc(F)c(O)c(C(N)=O)c4)c4c(=O)n(CC#Cc5cnn(C)c5)cnc43)c(Cl)cn2)CC1 [Compound I-478] | 0.182 | 4.58 | 0.366
25 | C[C@H]1COCCN1c1cc(NC(=O)Cn2cc(-c3cc(Cl)c(O)c(C(N)=O)c3)c3c(=O)n(C)cnc32)c(Cl)c(F)n1 [Compound I-235] | 0.138 | 14 | 0.139
26 | CN1CCOC2CN(c3cc(NC(=O)Cn4cc(-c5cc(C(N)=O)c(O)c(F)c5F)c5c(=O)n(C)cnc54)c(Cl)cn3)CC21 (stereo not drawn) [Compound I-325] | 1.13 | 40.8 | 2
27 | Cc1nc2c(c(-c3cc(F)c(O)c(C(N)=O)c3)cn2CC(=O)Nc2cc(N3CC(C)(C)N(C)C(C)(C)C3)ncc2Cl)c(=O)n1C [Compound I-250] | 0.0902 | 16.3 | 0.0822
28 | C[C@H]1COCCN1c1cc(NC(=O)Cn2cc(-c3cc(C(N)=O)c(O)c(F)c3F)c3c(=O)n(CC#Cc4cnn(C)c4)cnc32)c(Cl)cn1 [Compound I-321] | 0.437 | 9.19 | 0.405
29 | CO[C@H]1CN(c2cc(NC(=O)Cn3cc(-c4cc(C(N)=O)c(O)c(F)c4F)c4c(=O)n(C)cnc43)c(Cl)c(F)n2)C[C@H]1F [Compound I-441] | 0.338 | 22.3 | 0.324
30 | Cn1cnc2c(c(-c3cc(C(N)=O)c(O)c(F)c3F)cn2CC(=O)Nc2cc(N3CCCC3)nc(F)c2Cl)c1=O [Compound I-417] | 0.441 | 21.7 | 0.478
31 | COc1cc(NC(=O)Cn2cc(-c3cc(Cl)c(O)c(C(N)=O)c3)c3c(=O)n(C)c(O)nc32)c(Cl)cn1 [Compound I-290] | 10 | 18400 | 10
